Values belong to the compound of their own block, whether it stands above or below them.
Key:
[1] = molecular target: ATM (Homo sapiens, UniProt Q13315); assay: biochemical; set-up: species or system HEK293/K-562/placenta mixed human extract; Kinobeads chemoproteomic competition binding, quantified by TMT LC-MS/MS, dose response up to 20 uM
[2] = molecular target: AXL (Homo sapiens, UniProt P30530); assay: biochemical; set-up: species or system HEK293/K-562/placenta mixed human extract; Kinobeads chemoproteomic competition binding, quantified by TMT LC-MS/MS, dose response up to 20 uM
[3] = molecular target: CIT (Homo sapiens, UniProt O14578); assay: biochemical; set-up: species or system HEK293/K-562/placenta mixed human extract; Kinobeads chemoproteomic competition binding, quantified by TMT LC-MS/MS, dose response up to 20 uM
[4] = molecular target: DCK (Homo sapiens, UniProt P27707); assay: biochemical; set-up: species or system HEK293/K-562/placenta mixed human extract; Kinobeads chemoproteomic competition binding, quantified by TMT LC-MS/MS, dose response up to 20 uM
[5] = molecular target: DYRK1A (Homo sapiens, UniProt Q13627); assay: biochemical; set-up: species or system HEK293/K-562/placenta mixed human extract; Kinobeads chemoproteomic competition binding, quantified by TMT LC-MS/MS, dose response up to 20 uM
[6] = molecular target: MAP3K2 (Homo sapiens, UniProt Q9Y2U5); assay: biochemical; set-up: species or system HEK293/K-562/placenta mixed human extract; Kinobeads chemoproteomic competition binding, quantified by TMT LC-MS/MS, dose response up to 20 uM
[7] = molecular target: MAP4K1 (Homo sapiens, UniProt Q92918); assay: biochemical; set-up: species or system HEK293/K-562/placenta mixed human extract; Kinobeads chemoproteomic competition binding, quantified by TMT LC-MS/MS, dose response up to 20 uM
[8] = molecular target: MAP4K3 (Homo sapiens, UniProt Q8IVH8); assay: biochemical; set-up: species or system HEK293/K-562/placenta mixed human extract; Kinobeads chemoproteomic competition binding, quantified by TMT LC-MS/MS, dose response up to 20 uM
[9] = molecular target: NEK2 (Homo sapiens, UniProt P51955); assay: biochemical; set-up: species or system HEK293/K-562/placenta mixed human extract; Kinobeads chemoproteomic competition binding, quantified by TMT LC-MS/MS, dose response up to 20 uM
[10] = molecular target: PRKD1 (Homo sapiens, UniProt Q15139); assay: biochemical; set-up: species or system HEK293/K-562/placenta mixed human extract; Kinobeads chemoproteomic competition binding, quantified by TMT LC-MS/MS, dose response up to 20 uM
[11] = molecular target: RPS6KA1 (Homo sapiens, UniProt Q15418); assay: biochemical; set-up: species or system HEK293/K-562/placenta mixed human extract; Kinobeads chemoproteomic competition binding, quantified by TMT LC-MS/MS, dose response up to 20 uM
[12] = molecular target: SLK (Homo sapiens, UniProt Q9H2G2); assay: biochemical; set-up: species or system HEK293/K-562/placenta mixed human extract; Kinobeads chemoproteomic competition binding, quantified by TMT LC-MS/MS, dose response up to 20 uM
[13] = molecular target: CYP3A4 (Homo sapiens, UniProt P08684); assay: midazolam marker-substrate inhibition assay, LC-MS/MS; format: biochemical
From the text: midazolam marker-substrate inhibition assay, LC-MS/MS on CYP3A4

[14] = molecular target: CAMK2A (Homo sapiens, UniProt Q9UQM7); assay: biochemical; set-up: species or system HEK293/K-562/placenta mixed human extract; Kinobeads chemoproteomic competition binding, quantified by TMT LC-MS/MS, dose response up to 20 uM
[15] = molecular target: IKBKB (Homo sapiens, UniProt O14920); assay: biochemical; set-up: species or system HEK293/K-562/placenta mixed human extract; Kinobeads chemoproteomic competition binding, quantified by TMT LC-MS/MS, dose response up to 20 uM
[16] = molecular target: MAP3K11 (Homo sapiens, UniProt Q16584); assay: biochemical; set-up: species or system HEK293/K-562/placenta mixed human extract; Kinobeads chemoproteomic competition binding, quantified by TMT LC-MS/MS, dose response up to 20 uM
[17] = molecular target: PHKG2 (Homo sapiens, UniProt P15735); assay: biochemical; set-up: species or system HEK293/K-562/placenta mixed human extract; Kinobeads chemoproteomic competition binding, quantified by TMT LC-MS/MS, dose response up to 20 uM
[18] = molecular target: PIM2 (Homo sapiens, UniProt Q9P1W9); assay: biochemical; set-up: species or system HEK293/K-562/placenta mixed human extract; Kinobeads chemoproteomic competition binding, quantified by TMT LC-MS/MS, dose response up to 20 uM
[19] = molecular target: RPS6KA2 (Homo sapiens, UniProt Q15349); assay: biochemical; set-up: species or system HEK293/K-562/placenta mixed human extract; Kinobeads chemoproteomic competition binding, quantified by TMT LC-MS/MS, dose response up to 20 uM
[20] = molecular target: STK16 (Homo sapiens, UniProt O75716); assay: biochemical; set-up: species or system HEK293/K-562/placenta mixed human extract; Kinobeads chemoproteomic competition binding, quantified by TMT LC-MS/MS, dose response up to 20 uM
[21] = molecular target: STRADA (Homo sapiens, UniProt Q7RTN6); assay: biochemical; set-up: species or system HEK293/K-562/placenta mixed human extract; Kinobeads chemoproteomic competition binding, quantified by TMT LC-MS/MS, dose response up to 20 uM

RPS6KA2, sequence (Q15349 whole entry): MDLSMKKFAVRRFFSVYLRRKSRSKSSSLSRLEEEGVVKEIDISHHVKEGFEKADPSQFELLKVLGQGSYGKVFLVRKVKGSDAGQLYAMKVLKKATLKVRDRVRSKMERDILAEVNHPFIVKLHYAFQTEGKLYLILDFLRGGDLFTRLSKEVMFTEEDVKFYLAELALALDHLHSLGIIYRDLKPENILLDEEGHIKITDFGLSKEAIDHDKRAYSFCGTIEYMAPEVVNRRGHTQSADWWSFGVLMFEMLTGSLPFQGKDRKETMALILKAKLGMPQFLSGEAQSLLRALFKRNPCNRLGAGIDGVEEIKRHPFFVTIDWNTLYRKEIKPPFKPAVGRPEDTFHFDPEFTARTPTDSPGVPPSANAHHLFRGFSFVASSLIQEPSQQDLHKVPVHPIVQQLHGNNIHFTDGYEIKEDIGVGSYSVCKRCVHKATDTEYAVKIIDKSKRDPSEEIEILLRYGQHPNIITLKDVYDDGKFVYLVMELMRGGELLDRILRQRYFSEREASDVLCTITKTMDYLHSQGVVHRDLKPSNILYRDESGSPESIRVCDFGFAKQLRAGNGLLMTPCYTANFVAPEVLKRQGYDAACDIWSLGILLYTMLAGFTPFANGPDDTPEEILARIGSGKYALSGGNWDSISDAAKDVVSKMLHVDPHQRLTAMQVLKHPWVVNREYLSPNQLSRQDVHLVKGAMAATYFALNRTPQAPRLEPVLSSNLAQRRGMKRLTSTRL
NEK2, sequence (P51955 whole entry): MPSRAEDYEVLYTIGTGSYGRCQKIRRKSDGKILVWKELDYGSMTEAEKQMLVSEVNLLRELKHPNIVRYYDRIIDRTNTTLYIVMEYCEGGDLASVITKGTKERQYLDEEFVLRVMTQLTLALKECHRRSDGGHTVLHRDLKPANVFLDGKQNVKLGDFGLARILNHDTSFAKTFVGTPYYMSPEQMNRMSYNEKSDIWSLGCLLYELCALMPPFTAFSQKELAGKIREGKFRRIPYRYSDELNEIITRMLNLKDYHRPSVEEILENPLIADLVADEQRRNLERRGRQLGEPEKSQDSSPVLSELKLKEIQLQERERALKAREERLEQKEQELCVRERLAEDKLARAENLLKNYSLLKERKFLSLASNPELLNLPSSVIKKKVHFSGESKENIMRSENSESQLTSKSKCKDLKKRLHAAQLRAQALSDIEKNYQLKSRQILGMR
ATM, sequence (Q13315 whole entry): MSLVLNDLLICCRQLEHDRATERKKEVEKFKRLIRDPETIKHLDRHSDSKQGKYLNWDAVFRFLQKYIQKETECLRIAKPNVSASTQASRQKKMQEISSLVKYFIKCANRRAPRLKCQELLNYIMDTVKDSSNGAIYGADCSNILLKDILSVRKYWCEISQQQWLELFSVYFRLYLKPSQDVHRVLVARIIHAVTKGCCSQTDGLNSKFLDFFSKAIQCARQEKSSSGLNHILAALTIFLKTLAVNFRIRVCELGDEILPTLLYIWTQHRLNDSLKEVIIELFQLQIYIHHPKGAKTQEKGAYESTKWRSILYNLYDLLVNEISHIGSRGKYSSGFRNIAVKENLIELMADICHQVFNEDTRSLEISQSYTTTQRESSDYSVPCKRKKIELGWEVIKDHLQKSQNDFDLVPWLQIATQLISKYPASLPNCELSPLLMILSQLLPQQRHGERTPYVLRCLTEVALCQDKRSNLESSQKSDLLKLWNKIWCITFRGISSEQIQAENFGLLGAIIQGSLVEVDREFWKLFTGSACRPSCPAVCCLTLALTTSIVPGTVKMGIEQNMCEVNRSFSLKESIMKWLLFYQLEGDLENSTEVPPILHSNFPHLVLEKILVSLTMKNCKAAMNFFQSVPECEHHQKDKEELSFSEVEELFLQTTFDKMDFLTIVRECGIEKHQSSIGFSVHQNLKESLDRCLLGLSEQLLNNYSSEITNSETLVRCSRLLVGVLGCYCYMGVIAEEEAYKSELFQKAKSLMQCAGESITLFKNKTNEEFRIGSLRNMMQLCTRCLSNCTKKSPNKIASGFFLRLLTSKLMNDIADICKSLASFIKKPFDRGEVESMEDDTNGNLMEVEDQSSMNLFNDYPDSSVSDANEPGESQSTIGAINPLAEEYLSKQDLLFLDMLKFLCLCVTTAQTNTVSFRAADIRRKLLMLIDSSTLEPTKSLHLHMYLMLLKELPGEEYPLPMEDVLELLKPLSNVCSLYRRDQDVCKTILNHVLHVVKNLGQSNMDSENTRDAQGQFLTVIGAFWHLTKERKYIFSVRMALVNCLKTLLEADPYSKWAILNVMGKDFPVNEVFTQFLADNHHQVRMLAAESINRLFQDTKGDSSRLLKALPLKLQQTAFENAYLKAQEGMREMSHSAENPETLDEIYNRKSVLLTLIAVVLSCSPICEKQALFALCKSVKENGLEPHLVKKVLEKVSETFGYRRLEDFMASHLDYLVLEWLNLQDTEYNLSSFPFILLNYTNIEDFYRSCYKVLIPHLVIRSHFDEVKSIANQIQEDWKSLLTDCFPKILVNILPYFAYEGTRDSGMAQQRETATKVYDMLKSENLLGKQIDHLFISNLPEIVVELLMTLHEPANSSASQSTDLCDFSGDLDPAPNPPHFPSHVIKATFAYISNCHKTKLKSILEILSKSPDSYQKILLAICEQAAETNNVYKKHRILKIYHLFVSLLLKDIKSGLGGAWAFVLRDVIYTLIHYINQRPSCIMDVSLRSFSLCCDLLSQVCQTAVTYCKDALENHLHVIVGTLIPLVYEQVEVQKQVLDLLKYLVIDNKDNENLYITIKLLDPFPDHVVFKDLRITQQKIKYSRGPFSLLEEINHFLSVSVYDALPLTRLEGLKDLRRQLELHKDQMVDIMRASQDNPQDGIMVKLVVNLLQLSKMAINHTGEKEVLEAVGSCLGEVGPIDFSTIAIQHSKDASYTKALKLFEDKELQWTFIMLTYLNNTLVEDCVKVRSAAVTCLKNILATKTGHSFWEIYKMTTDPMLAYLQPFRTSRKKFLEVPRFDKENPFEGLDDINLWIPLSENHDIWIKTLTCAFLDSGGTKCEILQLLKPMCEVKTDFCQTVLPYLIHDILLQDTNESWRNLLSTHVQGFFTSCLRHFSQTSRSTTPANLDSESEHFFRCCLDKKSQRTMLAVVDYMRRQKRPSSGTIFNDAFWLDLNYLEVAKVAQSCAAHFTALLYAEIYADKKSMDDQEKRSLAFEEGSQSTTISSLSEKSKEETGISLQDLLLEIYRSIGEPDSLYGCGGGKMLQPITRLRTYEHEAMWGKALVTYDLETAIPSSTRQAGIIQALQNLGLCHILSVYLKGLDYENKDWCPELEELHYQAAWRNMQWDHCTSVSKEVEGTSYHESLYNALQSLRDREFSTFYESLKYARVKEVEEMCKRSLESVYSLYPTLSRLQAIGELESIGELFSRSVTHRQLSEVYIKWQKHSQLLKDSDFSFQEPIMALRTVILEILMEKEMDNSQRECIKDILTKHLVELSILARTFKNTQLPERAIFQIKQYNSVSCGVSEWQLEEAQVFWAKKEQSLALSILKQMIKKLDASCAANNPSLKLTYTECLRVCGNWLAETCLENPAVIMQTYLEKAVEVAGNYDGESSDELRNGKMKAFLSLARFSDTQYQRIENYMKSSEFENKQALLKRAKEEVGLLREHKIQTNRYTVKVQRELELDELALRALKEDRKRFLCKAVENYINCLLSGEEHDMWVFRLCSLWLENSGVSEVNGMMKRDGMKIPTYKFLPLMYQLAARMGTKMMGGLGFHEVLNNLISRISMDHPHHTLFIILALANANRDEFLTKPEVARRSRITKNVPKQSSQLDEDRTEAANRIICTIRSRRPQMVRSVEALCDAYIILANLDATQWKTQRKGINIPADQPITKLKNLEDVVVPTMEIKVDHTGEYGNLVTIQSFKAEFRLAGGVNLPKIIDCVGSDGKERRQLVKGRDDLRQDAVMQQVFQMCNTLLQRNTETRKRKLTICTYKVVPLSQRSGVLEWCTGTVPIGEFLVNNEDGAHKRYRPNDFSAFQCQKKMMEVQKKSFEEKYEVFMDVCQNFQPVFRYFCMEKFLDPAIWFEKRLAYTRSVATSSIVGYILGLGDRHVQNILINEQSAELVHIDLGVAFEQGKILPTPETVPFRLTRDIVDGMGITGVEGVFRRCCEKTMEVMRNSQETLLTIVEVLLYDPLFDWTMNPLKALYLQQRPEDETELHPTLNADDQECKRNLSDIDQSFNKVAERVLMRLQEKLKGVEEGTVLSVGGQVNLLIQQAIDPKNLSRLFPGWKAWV
STK16, sequence (O75716 whole entry): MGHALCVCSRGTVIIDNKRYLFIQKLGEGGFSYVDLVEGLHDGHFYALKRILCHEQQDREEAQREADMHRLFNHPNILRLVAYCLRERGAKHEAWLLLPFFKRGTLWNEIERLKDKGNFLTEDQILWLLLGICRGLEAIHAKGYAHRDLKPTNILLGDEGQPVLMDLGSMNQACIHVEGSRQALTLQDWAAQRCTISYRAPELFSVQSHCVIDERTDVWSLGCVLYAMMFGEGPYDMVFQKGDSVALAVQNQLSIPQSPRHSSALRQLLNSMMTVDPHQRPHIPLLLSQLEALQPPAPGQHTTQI
DCK, sequence (P27707 whole entry): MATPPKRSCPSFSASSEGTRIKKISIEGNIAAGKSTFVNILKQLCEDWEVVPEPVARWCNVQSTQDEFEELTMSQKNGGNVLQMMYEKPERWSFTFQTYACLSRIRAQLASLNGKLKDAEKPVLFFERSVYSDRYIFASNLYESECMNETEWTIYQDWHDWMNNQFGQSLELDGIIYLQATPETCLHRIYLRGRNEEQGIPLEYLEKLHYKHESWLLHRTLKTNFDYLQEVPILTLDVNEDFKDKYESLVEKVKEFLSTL

- IC50 [1]: ≥ 20 µM
- IC50 [2]: ≥ 20 µM
- IC50 [3]: ≥ 20 µM
- IC50 [4]: ≥ 20 µM
- IC50 [5]: ≥ 20 µM
- IC50 [6]: ≥ 20 µM
- IC50 [7]: ≥ 20 µM
- IC50 [8]: ≥ 20 µM
- IC50 [9]: ≥ 20 µM
- IC50 [10]: ≥ 20 µM
- IC50 [11]: ≥ 20 µM
- IC50 [12]: ≥ 20 µM
SMILES: COc1ccccc1-c1n[nH]c2nc(N[C@H]3CC[C@H](NS(=O)(=O)CCC(F)(F)F)CC3)nc(OC)c12 [compound 31, 3,3,3-Trifluoro-N-(trans-4-((4-methoxy-3-(2-methoxyphenyl)-1H-pyrazolo[3,4-d]pyrimidin-6-yl)amino)cyclohexyl)propane-1-sulfonamide]

SMILES: COc1nc(N[C@H]2CC[C@H](NS(=O)(=O)CC(C)C)CC2)nc2[nH]nc(N3CCOC[C@H]3C)c12 [compound 39, N-(trans-4-((4-Methoxy-3-((R)-3-methylmorpholino)-1H-pyrazolo[3,4-d]pyrimidin-6-yl)amino)cyclohexyl)-2-methylpropane-1-sulfonamide]
- IC50 [13]: > 39.8 µM
- IC50 [14]: ≥ 20 µM
- IC50 [15]: ≥ 20 µM
- IC50 [16]: ≥ 20 µM
- IC50 [17]: ≥ 20 µM
- IC50 [18]: ≥ 20 µM
- IC50 [19]: ≥ 20 µM
- IC50 [20]: ≥ 20 µM
- IC50 [21]: ≥ 20 µM
